This passage reports IC50 and inhibition results from patent publication US20060069123A1, “Substituted dipiperidine CCR2 antagonists” (priority 2004, published 2006).

Assay [1] concerns THP-1 cells. The assay is described as follows: MCP-1 Induced Chemotaxis in THP-1 Cells. Format: cell-based. Particulars: Homo sapiens, THP-1 cells, MCP-1 0.01 μg/mL, 3 hours, read-out: Inhibition of MCP-1 Induced Chemotaxis IC50. How it is done:
MCP-1 Induced Chemotaxis in THP-1 Cells
MCP-1 induced chemotaxis was run in a 24-well chemotaxis chamber. MCP-1 (0.01 μg/mL) was added to the lower chamber and 100 μL of THP-1 cells (1×10^7 cell/mL) was added to the top chamber. Varying concentrations of test compound were added to the top and bottom chambers. Cells were allowed to chemotax for 3 hours at 37° C. and 5% CO2. An aliquot of the cells that had migrated to the bottom chamber was taken and counted then compared to vehicle.

Assay [2] addresses T1, CCR2 (Homo sapiens, UniProt P41597).
T1 sequence (P41597 1-360 isoform P41597-2): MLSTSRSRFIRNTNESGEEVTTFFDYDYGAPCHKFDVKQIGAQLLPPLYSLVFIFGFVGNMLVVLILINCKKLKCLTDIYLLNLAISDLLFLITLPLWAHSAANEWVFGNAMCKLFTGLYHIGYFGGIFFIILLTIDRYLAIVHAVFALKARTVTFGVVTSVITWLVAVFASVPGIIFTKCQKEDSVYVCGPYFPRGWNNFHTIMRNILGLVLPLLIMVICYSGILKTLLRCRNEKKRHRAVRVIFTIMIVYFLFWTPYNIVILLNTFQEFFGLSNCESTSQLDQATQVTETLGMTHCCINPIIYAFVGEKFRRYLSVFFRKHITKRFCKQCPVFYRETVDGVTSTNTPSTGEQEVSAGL
Particulars: for inhibition at 25 µM: read-out: Inhibition of MCP-1 Binding, percent inhibition.

Structures are written as SMILES. Read-outs that look alike come from different tables or passages of the source.

As to `Cc1ccc(/C=C/C(=O)N2CCC(C(C(=O)O)N3CCC(c4c[nH]c5ccccc45)CC3)CC2)cc1F` (stereo not drawn) [Cpd 74, {1-[(2E)-3-(3-fluoro-4-methyl-phenyl)-acryloyl]-piperidin-4-yl}-[4-(1H-indol-3-yl)-piperidin-1-yl]-acetic acid], the IC50 (commonly the point on the concentration scale where inhibition reaches its midpoint) in assay [1] is 6 nM; in assay [2] it was 5 nM.
For `COc1ccc2[nH]cc(C3CCN(C(C(=O)O)C4CCN(C(=O)Nc5ccc(Cl)c(Cl)c5)CC4)CC3)c2c1` (stereo not drawn) [Cpd 94, [1-(3,4-dichloro-phenylcarbamoyl)-piperidin-4-yl]-[4-(5-methoxy-1H-indol-3-yl)-piperidin-1-yl]-acetic acid], the IC50 in assay [1] and in assay [2] was 10 nM in each case.
Turning to `COc1ccc(C2CCN(C(C(=O)O)C3CCN(C(=O)/C=C/c4cc(F)cc(F)c4)CC3)CC2)cc1` (stereo not drawn) [Cpd 2, {1-[(2E)-3-(3,5-difluoro-phenyl)-acryloyl]-piperidin-4-yl}-[4-(4-methoxy-phenyl)-piperidin-1-yl]-acetic acid], the IC50 in assay [1] turned out to be 1810 nM; in assay [2], 1830 nM.
On to `O=C(O)C(C1CCN(C(=O)/C=C/c2cc(F)cc(F)c2)CC1)N1CCC(c2c[nH]c3ccc(O)cc23)CC1` (stereo not drawn) [Cpd 16, {1-[(2E)-3-(3,5-difluoro-phenyl)-acryloyl]-piperidin-4-yl}-[4-(5-hydroxy-1H-indol-3-yl)-piperidin-1-yl]-acetic acid], for which the IC50 in assay [1] worked out at 20 nM.
With `COc1cccc(/C=C/C(=O)N2CCC(C(C(=O)O)N3CCC(c4c[nH]c5ccccc45)CC3)CC2)c1` (stereo not drawn) [Cpd 72, [4-(1H-indol-3-yl)-piperidin-1-yl]-{1-[(2E)-3-(3-methoxy-phenyl)-acryloyl]-piperidin-4-yl}-acetic acid], the IC50 in assay [1] amounted to 30 nM.
Consider `O=C(O)C(C1CCN(C(=O)/C=C/c2ccc(Cl)c(Cl)c2)CC1)N1CCC(c2c[nH]c3ccc(F)cc23)CC1` (stereo not drawn) [Cpd 19, {1-[(2E)-3-(3,4-dichloro-phenyl)-acryloyl]-piperidin-4-yl}-[4-(5-fluoro-1H-indol-3-yl)-piperidin-1-yl]-acetic acid], for which the IC50 in assay [1] came out at 4 nM.
In the case of `O=C(O)C(C1CCN(C(=O)/C=C/c2ccc(Br)cc2)CC1)N1CCC(c2c[nH]c3ccccc23)CC1` (stereo not drawn) [Cpd 60, {1-[(2E)-3-(4-bromo-phenyl)-acryloyl]-piperidin-4-yl}-[4-(1H-indol-3-yl)-piperidin-1-yl]-acetic acid], in assay [1], the IC50 is 70 nM.
Consider `CS(=O)(=O)Nc1ccc2c(C3CCN(C(C(=O)O)C4CCN(C(=O)/C=C/c5cc(F)c(F)c(F)c5)CC4)CC3)c[nH]c2c1` (stereo not drawn) [Cpd 82], for which the IC50 in assay [1] (THP-1, 3 h) was determined as 210 nM.
Take `O=C(O)C(C1CCN(C(=O)/C=C/c2ccc(F)c(F)c2)CC1)N1CCC(c2c[nH]c3ccccc23)CC1` (stereo not drawn) [Cpd 22, {1-[(2E)-3-(3,4-difluoro-phenyl)-acryloyl]-piperidin-4-yl}-[4-(1H-indol-3-yl)-piperidin-1-yl]-acetic acid]: in assay [1], the IC50 is 4 nM.
In the case of `O=C(O)C(C1CCN(C(=O)/C=C/c2cc(F)cc(F)c2)CC1)N1CCC(c2c[nH]c3cc(Cl)ccc23)CC1` (stereo not drawn) [Cpd 25, [4-(6-chloro-1H-indol-3-yl)-piperidin-1-yl]-{1-[(2E)-3-(3,5-difluoro-phenyl)-acryloyl]-piperidin-4-yl}-acetic acid], the IC50 in assay [1] was 10 nM.
Still for that read-out and setting: the value for `COc1cccc2c(C3CCN(C(C(=O)O)C4CCN(C(=O)/C=C/c5cc(F)cc(F)c5)CC4)CC3)c[nH]c12` (stereo not drawn) [Cpd 42, {1-[(2E)-3-(3,5-difluoro-phenyl)-acryloyl]-piperidin-4-yl}-[4-(7-methoxy-1H-indol-3-yl)-piperidin-1-yl]-acetic acid] was 0.8 nM; that for `COc1ccc2[nH]cc(C3CCN(C(C(=O)O)C4CCN(C(=O)/C=C/c5cc(F)cc(F)c5)CC4)CC3)c2c1` (stereo not drawn) [Cpd 26, {1-[(2E)-3-(3,5-difluoro-phenyl)-acryloyl]-piperidin-4-yl}-[4-(5-methoxy-1H-indol-3-yl)-piperidin-1-yl]-acetic acid] was 30 nM; that for `O=C(O)C(C1CCN(C(=O)/C=C/c2cc(F)cc(F)c2)CC1)N1CCC(c2c[nH]c3ccc(F)cc23)CC1` (stereo not drawn) [Cpd 8, {1-[(2E)-3-(3,5-difluoro-phenyl)-acryloyl]-piperidin-4-yl}-[4-(5-fluoro-1H-indol-3-yl)-piperidin-1-yl]-acetic acid] was 10 nM.
Consider `COc1ccc(NC(=O)N2CCC(C(C(=O)O)N3CCC(c4c[nH]c5ccccc45)CC3)CC2)cc1OC` (stereo not drawn) [Cpd 66, [1-(3,4-dimethoxy-phenylcarbamoyl)-piperidin-4-yl]-[4-(1H-indol-3-yl)-piperidin-1-yl]-acetic acid], for which 17700 nM corresponded to half-maximal inhibition in assay [2] (IC50).
Compound `O=CNCC(C1CCN(C(=O)/C=C/c2ccsc2)CC1)N1CCC(c2c[nH]c3ccccc23)CC1` (stereo not drawn) [Cpd 225] returned an IC50 in assay [2] of 1300 nM.
With `O=C(/C=C/c1ccc(C(F)(F)F)cc1)N1CCC(C(CCl)N2CCC(c3ccc(Cl)cc3)CC2)CC1` (stereo not drawn) [Cpd 247, (2E)-1-(4-{2-chloro-1-[4-(4-chloro-phenyl)-piperidin-1-yl]-ethyl}-piperidin-1-yl)-3-(4-trifluoromethyl-phenyl)-propenone], in assay [2], the inhibition – broadly, how much of the control response was suppressed – at 25 µM was found to be 53%.
`O=C(O)C(C1CCN(C(=O)Nc2ccc(F)c(F)c2)CC1)N1CCC(c2c[nH]c3ccccc23)CC1` (stereo not drawn) [Cpd 40, [1-(3,4-difluoro-phenylcarbamoyl)-piperidin-4-yl]-[4-(1H-indol-3-yl)-piperidin-1-yl]-acetic acid]: in assay [1], the IC50 was 30 nM.
`COc1ccc(C2CCN(C(C(=O)O)C3CCN(C(=O)/C=C/c4cc(F)c(F)c(F)c4)CC3)CC2)cc1` (stereo not drawn) [Cpd 5, [4-(4-methoxy-phenyl)-piperidin-1-yl]-{1-[(2E)-3-(3,4,5-trifluoro-phenyl)-acryloyl]-piperidin-4-yl}-acetic acid]: 840 nM corresponded to half-maximal inhibition in assay [2] (IC50).
With `O=C(O)C(C1CCN(C(=O)/C=C/c2cccc(F)c2)CC1)N1CCC(c2c[nH]c3ccccc23)CC1` (stereo not drawn) [Cpd 62, {1-[(2E)-3-(3-fluoro-phenyl)-acryloyl]-piperidin-4-yl}-[4-(1H-indol-3-yl)-piperidin-1-yl]-acetic acid], the IC50 in assay [1] came out at 180 nM.
Regarding `O=C(CC1CCN(C(C(=O)O)C2CCN(C(=O)/C=C/c3cc(F)c(F)c(F)c3)CC2)CC1)NCc1ccccc1` (stereo not drawn) [Cpd 149], in assay [2], the IC50 turned out to be 16600 nM.
Still for that read-out and setting: the value for `O=C(O)C(C1CCN(C(=O)/C=C/c2ccc(Cl)c(Cl)c2)CC1)N1CCC(c2ccc(Cl)cc2)CC1` (stereo not drawn) [Cpd 1, [4-(4-chloro-phenyl)-piperidin-1-yl]-{1-[(2E)-3-(3,4-dichloro-phenyl)-acryloyl]-piperidin-4-yl}-acetic acid] was 253 nM.
For the compound `CS(=O)(=O)Nc1ccc(C2CCN(C(CO)C3CCN(C(=O)/C=C/c4cc(F)c(F)c(F)c4)CC3)CC2)cc1` (stereo not drawn) [Cpd 209, N-{4-[1-(2-hydroxy-1-{1-[(2E)-3-(3,4,5-trifluoro-phenyl)-acryloyl]-piperidin-4-yl}-ethyl)-piperidin-4-yl]-phenyl}-methanesulfonamide], in assay [2], the inhibition at 25 µM was found to be 52%.
`N=C(NC(=O)c1cccc(F)c1)N1CCC(C(C(=O)O)N2CCC(c3c[nH]c4ccccc34)CC2)CC1` (stereo not drawn) [Cpd 54, {1-[(3-fluoro-benzoylamino)-imino-methyl]-piperidin-4-yl}-[4-(1H-indol-3-yl)-piperidin-1-yl]-acetic acid] yielded an IC50 in assay [2] of 1400 nM.
As for `CN(C)CC(=O)NCC(C1CCN(C(=O)/C=C/c2cc(F)cc(F)c2)CC1)N1CCC(c2c[nH]c3ccccc23)CC1` (stereo not drawn) [Cpd 252], it took 5800 nM to reach half-maximal inhibition in assay [2] (IC50).
